Non-standard residues stand in square brackets, D forms with d. No end group written: not given here. 5‑aminobutyric acid = not defined here

In the assay the test system is PBMC's. The assay is described as follows: Cytokine release assay (IL-10 release from PBMCs, ELISA or multiplex bead array). Type of assay: cell-based. Particulars: 5 days stimulation. On the procedure: FIGS. 1 and 2 show mean IL-10 release (y axis, pg/ml) in response to the house dust mite peptides shown on the x axis, for a population of dust mite allergic individuals.
FIGS. 3 and 4 show mean IL-10 release (y axis, pg/ml) in response to the ragweed peptides shown on the x axis, for a population of ragweed allergic individuals.
Cytokine secretion profiles from PBMC's are analysed in response to the peptide stimulation using the peptides from Examples 1 and 2. Supernatants from the cytokine release assay were tested for the presence of IL-10, using either an ELISA assay or a multiplex bead array assay. A typical cytokine release assay requires 40×10^6 PBMC's per subject. In more detail, 250 μl of a 200 μg/ml solution of the appropriate antigen or peptide concentration is distributed into the appropriate wells of 48 well plates. Plates are then incubated in a humidified 5% CO2 incubator at 37° C. for a maximum of 4 hours. 250 μl of a 5×10^6 cell/ml PBMC suspension is then added to each well and the plates returned to the incubator for 5 days. Following stimulation, samples of culture supernatant are harvested for testing by ELISA or multiplex bead assay according to standard protocols.
Background: An ELISA detects its analyte on a solid surface through an enzyme-linked reagent.

Where [1] appears, read: house dust mite peptides of Example 1, PBMCs of dust mite allergic individuals, FIGS. 1 and 2.
Where [2] appears, read: ragweed peptides of Example 2, PBMCs of ragweed allergic individuals, FIGS. 3 and 4.

Take DEFKNRFLMSAEAFE [HDM202]: under setting [1], the “IL-10 production compared with other peptides” value is “higher IL-10 production than other peptides” and the “IL-10 release compared with whole allergen” value is “higher IL-10 release than whole allergen”.

As for “ELVDSASQHG (Description of Artificial Sequence: Synthetic HDM03W peptide)”, under setting [1], the “IL-10 production compared with other peptides” value is listed as “higher IL-10 production than other peptides” and the “IL-10 release compared with whole allergen” value is given as “higher IL-10 release than whole allergen”.

Consider EQELVDSASQHG [HDM03V], for which, under setting [1], the “IL-10 production compared with other peptides” value was “higher IL-10 production than other peptides”.

Turning to GEAAIKLTSSAGVLS [RGW07], under setting [2], the “IL-10 production compared with other peptides” value was “higher IL-10 production than other peptides”.

GESALSLTSSAGVLS [RGW07B]: the “IL-10 production compared with other peptides” value under setting [2] was “higher IL-10 production than other peptides”.

For KGEAAIKLTSSAGVLSK [RGW07C], the “IL-10 production compared with other peptides” value under setting [2] is recorded as “higher IL-10 production than other peptides”.

As for KGEAAIKLTSSAGVLSKK [RGW07D], under setting [2], the “IL-10 production compared with other peptides” value is “higher IL-10 production than other peptides” and the “IL-10 release compared with whole allergen” value is on record as “higher IL-10 release than whole allergen”.

For the sequence “RNQSLDLAEQELVD ? ASQH (RNQSLDLAEQELVD[5‑aminobutyric acid]ASQH; not fully specified; reading uncertain) [HDM03E, character = 2-aminobutryic acid]”, under setting [1], the “IL-10 production compared with other peptides” value is recorded as “higher IL-10 production than other peptides” and the “IL-10 release compared with whole allergen” value was “higher IL-10 release than whole allergen”.

As to “RNQSLDLAEQELVDSASQH (Description of Artificial Sequence: Synthetic HDM03D peptide)”, the “IL-10 production compared with other peptides” value under setting [1] is listed as “higher IL-10 production than other peptides”.

These data come from patent US8821887B2, “T-cell antigen peptide from allergen for stimulation of IL-10 production” (Circassia Limited, priority 2008, dated 2014).
